Measurements reported in ChEMBL document CHEMBL1201862, “PubChem BioAssay data set” (2004).
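Growth conditions: 96-well plates. Treatment: test compound, 48 hours, 5 concentrations. Analysis: linear interpolation between bracketing concentrations; unreached endpoints set to highest concentration. GI50 marks 50% less growth.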 The source made the active and inactive calls. Rule as the data show it: active = GI50 up to about 1.1 µM and inactive = higher.

Tests used:
Test in all cases: NCI-60 cell line screen, 48 h
IGROV-1 = test system: IGROV-1
UACC-257 = test system: UACC-257
SF-539 = test system: SF-539
SK-OV-3 = test system: SK-OV-3
RXF 393 = test system: RXF 393
ACHN = test system: ACHN
NCI-H522 = test system: NCI-H522
OVCAR-5 = test system: OVCAR-5
MDA-MB-231 = test system: MDA-MB-231
Malme-3M = test system: Malme-3M
DU-145 = test system: DU-145
PC-3 = test system: PC-3
HCC 2998 = test system: HCC 2998
HOP-62 = test system: HOP-62
Hs-578T = test system: Hs-578T
OVCAR-3 = test system: OVCAR-3
HOP-92 = test system: HOP-92
U-251 = test system: U-251
EKVX = test system: EKVX
SNB-19 = test system: SNB-19

Compound	GI50 (IGROV-1)	GI50 (UACC-257)	GI50 (SF-539)	GI50 (SK-OV-3)	GI50 (RXF 393)	GI50 (ACHN)	GI50 (NCI-H522)	GI50 (OVCAR-5)	GI50 (MDA-MB-231)	GI50 (Malme-3M)	GI50 (DU-145)	GI50 (PC-3)	GI50 (HCC 2998)	GI50 (HOP-62)	GI50 (Hs-578T)	GI50 (OVCAR-3)	GI50 (HOP-92)	GI50 (U-251)	GI50 (EKVX)	GI50 (SNB-19)
CC(C)NCC(O)c1cc(OCc2ccccc2)c(OCc2ccccc2)cc1NC(=O)CCC(=O)O (stereo not given)	11.4 µM (inactive)	13.4 µM (inactive)	16.4 µM (inactive)	14.9 µM (inactive)	5.36 µM (inactive)	3.18 µM (inactive)	3.52 µM (inactive)	16.7 µM (inactive)	8.15 µM (inactive)	15.2 µM (inactive)	13 µM (inactive)	9.02 µM (inactive)	2.49 µM (inactive)	13.7 µM (inactive)	11.6 µM (inactive)	13.6 µM (inactive)	4.78 µM (inactive)	5.04 µM (inactive)	12.4 µM (inactive)	12.6 µM (inactive)
COc1ccc(Cn2c3c(cc(OS(=O)(=O)C(F)(F)F)c2=O)Cc2ccccc2-3)cc1	22.5 µM (inactive)	11.9 µM (inactive)	10.3 µM (inactive)	25.1 µM (inactive)	29.9 µM (inactive)	21.6 µM (inactive)	22 µM (inactive)	20.3 µM (inactive)	> 50 µM (inactive)	16.2 µM (inactive)	20.2 µM (inactive)	> 50 µM (inactive)	11.7 µM (inactive)	21.9 µM (inactive)	> 50 µM (inactive)	9.53 µM (inactive)	22.3 µM (inactive)	19.2 µM (inactive)	20.4 µM (inactive)	19.1 µM (inactive)
CC(=O)c1cc2c(s1)C(=O)c1scc(C(C)=O)c1C2=O	0.514 µM (active)	0.223 µM (active)	1.21 µM (inactive)	1.96 µM (inactive)	0.348 µM (active)	0.248 µM (active)	0.378 µM (active)	1.57 µM (inactive)	0.225 µM (active)	0.385 µM (active)	1.52 µM (inactive)	0.605 µM (active)	1.98 µM (inactive)	0.467 µM (active)	0.279 µM (active)	0.0738 µM (active)	0.318 µM (active)	0.228 µM (active)	0.485 µM (active)	1.15 µM (inactive)
NS(=O)(=O)c1ccc(/N=N/c2c(O)c(C(=O)O)cc3ccccc23)cc1	> 100 µM (inactive)	> 100 µM (inactive)	> 100 µM (inactive)	> 100 µM (inactive)	> 100 µM (inactive)	> 100 µM (inactive)	> 76.7 µM (inactive)	> 100 µM (inactive)	> 100 µM (inactive)	26.1 µM (inactive)	> 100 µM (inactive)	> 100 µM (inactive)	> 100 µM (inactive)	99.1 µM (inactive)	> 100 µM (inactive)	> 100 µM (inactive)	> 100 µM (inactive)	49.3 µM (inactive)	> 100 µM (inactive)	43.1 µM (inactive)
COc1cc(C(=O)O)ccc1OS(=O)(=O)O	> 100 µM (inactive)	> 100 µM (inactive)	> 100 µM (inactive)	> 100 µM (inactive)	30.3 µM (inactive)	> 100 µM (inactive)	> 100 µM (inactive)	> 100 µM (inactive)	> 100 µM (inactive)	> 100 µM (inactive)	> 100 µM (inactive)	> 100 µM (inactive)	> 100 µM (inactive)	> 100 µM (inactive)	> 100 µM (inactive)	> 100 µM (inactive)	> 100 µM (inactive)	> 100 µM (inactive)	> 100 µM (inactive)	> 100 µM (inactive)
COc1ccc2c(c1)/C(=C\c1c(-c3ccccc3)nc3n1CCS3)C(=O)N2	4.92 µM (inactive)	12.2 µM (inactive)	5.9 µM (inactive)	12.7 µM (inactive)	13.6 µM (inactive)	11.5 µM (inactive)	4.63 µM (inactive)	14.8 µM (inactive)	4.03 µM (inactive)	12.2 µM (inactive)	16.3 µM (inactive)	2.97 µM (inactive)	10.6 µM (inactive)	10.5 µM (inactive)	11 µM (inactive)	3.82 µM (inactive)	12.9 µM (inactive)	7.28 µM (inactive)	12.8 µM (inactive)	49.7 µM (inactive)
Clc1nncc2sc(-c3ccccc3)nc12	8.67 µM (inactive)	18.3 µM (inactive)	27.5 µM (inactive)	28.7 µM (inactive)	16.6 µM (inactive)	26.9 µM (inactive)	8.73 µM (inactive)	83.2 µM (inactive)	18.6 µM (inactive)	22.1 µM (inactive)	6.62 µM (inactive)	17.6 µM (inactive)	8.45 µM (inactive)	17.8 µM (inactive)	20.6 µM (inactive)	6.41 µM (inactive)	5.06 µM (inactive)	15 µM (inactive)	4.12 µM (inactive)	17.9 µM (inactive)
